Earlier results on 1 compound are cited in US12708613B2, “Methods for improving physical exercise performance” (NOMIO NUTRITION AB, priority 2020, dated 2026).

The series has as its system mice.

With `C[S+]([O-])CCCCN=C=S` (centres unmarked) [sulforaphane, 1-Isothiocyanato-4-(methanesulfinyl)butane], the “effect on glucose levels” value (mice models) is listed as “no effect”. In addition, the endurance result (mice, injected (intraperitoneally, 25 mg/kg body weight)) is given as “improved endurance”.
